Experimental data published in patent US20040248139A1, “Eit-6, a polypeptide encoded by an estrogen regulated gene” (priority 2001, published 2004).

How the values were obtained:
[1] = tested on: ZR75-1 breast cancer cells; experiment: SAGE (serial analysis of gene expression) after estrogen or tamoxifen treatment; format: cell-based, human; conditions: 10 nM estradiol, 16 h
From the text: (§1) In order to identify genes involved in the response of breast cancer cells to estrogen and tamoxifen, SAGE libraries were generated from an estrogen- dependent human breast cancer cell line (ZR75-1; obtained from the American type Culture Collection (ATTC), Manassas, VA) prior to and following estrogen or tamoxifen treatment. SAGE facilitated the determination of the absolute abundance of thousands of different mRNAs simultaneously in a comprehensive and unbiased way and to detect even slight differences in expression levels between samples [Velculescu et al. (1995) Science 270: 484-487; Polyak et al. (1997) Nature 389:300-305; Lal et al. (1999) Cancer Res. 59:5403-5607; Velculescu et al. (1999) Nature Genetics 23:387-388]. ZR75-1 cells cultured in the absence of steroid hormones (i.e., in phenol red-free culture medium containing charcoal-treated fetal bovine serum (FBS) (5%)) for seven days were split into three aliquots which were then cultured in fresh steroid-free medium containing no additive, 10 nM estradiol, or 10 μM 4-hydroxy-tamoxifen. Cells were harvested from the cultures after sixteen hours and response to the hormone treatment was confirmed by FACS analysis of cell cycle progression and by Northern blot analysis to test for the expression of known estrogen target genes.
SAGE libraries from untreated, estrogen-treated and tamoxifen-treated ZR75-1 cells were generated using a modified micro-SAGE protocol [Porter et al. (2001) Cancer Res. 61: 5697-5702]. From the three SAGE libraries 140,638 tags were obtained, approximately 45,000 from each library. Hierarchical clustering was applied to data using the Auster program developed by Eisen et al. [(1998) Proc. Natl. Acad. Sci. USA. 95: 14863-14868]. Data was log-transformed and filtered for at least 1 observations abs Val 5 and Maxval-Minval >5. Using these settings 2,818 genes (out of 16,808 total) were included in the analysis that led to the identification of several estrogen- and/or tamoxifen-induced transcripts. […] Linking the UniGene database to the SAGE data identified the cDNAs corresponding to the SAGE tags in most of the cases (Table 1). Genes were named according to their relative abundance in the three SAGE libraries: EIT (Estrogen Induced Tag)-induced by estrogen; TIT (Tamoxifen Induced Tag)-induced by tamoxifen; and DET (Differently Expressed Tag)-differently expressed following estrogen or tamoxifen treatment.

[2] = tested on: putative estrogen responsive elements (ERE) in HepG2 cells; experiment: Luciferase reporter assay, ERE concatamer constructs with estrogen receptor α in HepG2 cells
Procedure: The cells were transfected using FuGene 6 (Roche, Basel, Switzerland) and treated with estrogen the day after transfection. On the day following estrogen treatment luciferase activity was determined using a luciferase assay system (Promega, Madison, Wis.). […] To determine whether these putative EREs could confer estrogen responsiveness, various constructs containing concatemers of each of these elements (in a variety of combinations) up-stream of a luciferase gene were generated (FIG. 2D). These concatamer constructs were generated by subcloning concatamers of PCR-derived fragments (of the EIT-6 promoter region) containing the putative ERE's into pBR-pl-TATA-luc [Polyak et al. (1997) Nature 389:300-305]. Luciferase and β-galactosidase activity was measured following transient co-transfection of these constructs with the estrogen receptor α-encoding construct (referred to above) and a vector containing a β-galactosidase-encoding cDNA sequence under control of a constitutive (CMV) promoter into HepG2 cells as described above and the values of luciferase activity were normalized for transfection efficiency by calculating ratios of luciferase activity to β-galactosidase activity which was measured using the Aurora GAL-XE reporter gene assay (ICN, Costa Mesa, Calif.). “Fold induction” was calculated according to the following formula:
Fold induction=(luciferase activity in estrogen treated cells÷βgalactosidase activity in estrogen treated cells)÷(luciferase activity in control cells÷βgalactosidase activity in control cells).

[3] = tested on: T47D ER+ breast cancer cells; experiment: Colony assay, T47D cells; format: cell-based, human; conditions: control pCEP4 and EIT-6 transfected cells, charcoal/dextran treated FBS, estrogen 10 nM
Procedure: In order to test whether EIT-6 expresssion influences cell proliferation and/or survival, colony assays were performed. […] T47D ER+breast cancer cells were transfected with a control construct (pCEP4) or the pCEP4-EIT6 construct. Stable transfectants were selected by culturing the cells in the presence of hygromycin for two weeks after which colonies were visualized by crystal violet staining. […] The number of colonies per cm^2 was determined by spot-densitometry-assisted counting using a MultiImage Lightbox (Alfa Innotech, San Leandro, Calif.). Two flasks per experimental group and two independent areas in each flask were analyzed.
To test if expression of EIT-6 can confer estrogen independent growth, ER+and estrogen dependent T47D breast cancer cells were transfected with control pCEP4 or pCEP4-EIT6 constructs. Stable transfectants were selected by culturing the cells in phenol red-free medium supplemented with charcoal/dextran treated (and thus steroid hormone depleted) FBS (5%) and hygromycin. Half the flasks contained estrogen (10 nM). After two weeks of dry selection, colonies were visualized by crystal violet staining and counted as described above.

[4] = tested on: EIT-6 mRNA in ZR75-1 cells; experiment: Northern blot of EIT-6 mRNA, ZR75-1 cells; format: cell-based, human
From the text: To confirm the result of the SAGE experiment, probes corresponding to some of the cDNA clones were generated and the induction of the relevant genes was confirmed by Northern blot analysis (FIG. 1A) performed as previously described [Polyak et al. (1997)]. Of the twenty estrogen- or tamoxifen-induced genes (Table 1), only one (EIT-10;cathepsin D) had previously been implicated as a target of ER-transcriptional activation and three had not previously been described at all. In most cases the sequences of the relevant genes provided important clues as to their potential functions (Table 1). Several of the genes are predicted to be involved in the regulation of cell proliferation and/or survival. […]

EIT-6 promoter region = conditions: ~5.5 kb EIT-6 promoter construct co-transfected with estrogen receptor α
Procedure: To further characterize the mechanism by which the estrogen receptor induces EIT-6, a fragment of the proximal EIT-6 promoter was tested for its ability to confer estrogen responsiveness on a luciferase reporter gene. The luciferase construct was generated by subcloning a BAC (bacterial artificial chromosome)-derived fragment of EIT-6 promoter region (approximately 5.5 kb in length) into pBR-pl-luc [Polyak et al. (1997)]. The cells were transfected using FuGene 6 (Roche, Basel, Switzerland) and treated with estrogen the day after transfection. On the day following estrogen treatment luciferase activity was determined using a luciferase assay system (Promega, Madison, Wis.). […] Luciferase and β-galactosidase activity was measured following transient co-transfection of these constructs with the estrogen receptor α-encoding construct (referred to above) and a vector containing a β-galactosidase-encoding cDNA sequence under control of a constitutive (CMV) promoter into HepG2 cells as described above and the values of luciferase activity were normalized for transfection efficiency by calculating ratios of luciferase activity to β-galactosidase activity which was measured using the Aurora GAL-XE reporter gene assay (ICN, Costa Mesa, Calif.). “Fold induction” was calculated according to the following formula:

[5] = tested on: EIT-6 mRNA in BT-474 cells; experiment: Northern blot of EIT-6 mRNA, BT-474 cells; format: cell-based, human
Procedure: All the cell lines were obtained from the ATCC.
To determine if the induction of EIT-6 by estrogen is estrogen receptor-mediated, the effect of estrogen antagonists (4-hydroxy-tamoxifen and ICI 182,780) on EIT-6 mRNA levels was determined. BT-474 cells were cultured with […] (1 μM) or 4-hydroxy-tamoxifen (10 μM) for 6 hours prior to estrogen (10 nM) treatment for an additional 24 hours. […] There are multiple mechanisms by which estrogen can regulate the expression of EIT-6, e.g., (1) directly by transcriptional regulation, (2) directly by influencing mRNA stability, or (3) indirectly through other transcription factors/signaling pathways. […] To further investigate if EIT-6 is a direct or indirect target of estrogen receptors, EIT-6 mRNA levels were measured following estrogen treatment BT-474 cells in the presence of a protein synthesis inhibitor (cycloheximide) (FIG. 2B). The cells were treated with cycloheximide (10 μg/ml) for 16 hours in the presence or absence of estrogen.

ZR75-1 cells = experiment: FACS analysis of cell cycle progression; format: cell-based, human; conditions: steroid-deprived ZR75-1 cells; 10 nM estradiol or 10 μM 4-hydroxy-tamoxifen, 16 h
From the text: as §1

[6] = tested on: prolyl hydroxylase enzymes; conditions: literature, compared with P2,5D where stated; cited from earlier work
[7] = BT-474, 16 h, cycloheximide 10 μg/ml

C[C@]12CC[C@@H]3c4ccc(O)cc4CC[C@H]3[C@@H]1CC[C@@H]2O [estrogen, estradiol]
SAGE tags, E (estrogen-treated) ([1]; gene DET-1, untreated C = 4): 15
SAGE tags, E (estrogen-treated) ([1]; gene DET-2, untreated C = 3): 13
SAGE tags, E (estrogen-treated) ([1]; gene DET-13, untreated C = 7): 1
SAGE tags, E (estrogen-treated) ([1]; gene DET-14, untreated C = 4): 1
SAGE tags, E (estrogen-treated) ([1]; gene DET-15 (USF2), untreated C = 11): 1
SAGE tags, E (estrogen-treated) ([1]; gene DET-16, untreated C = 7): 0
SAGE tags, E (estrogen-treated) ([1]; gene DET-17 (SULT 1A), untreated C = 0): 1
SAGE tags, E (estrogen-treated) ([1]; gene EIT-1, untreated C = 1): 14
SAGE tags, E (estrogen-treated) ([1]; gene EIT-2 (TIM17B), untreated C = 1): 14
SAGE tags, E (estrogen-treated) ([1]; gene EIT-3, untreated C = 2): 19
SAGE tags, E (estrogen-treated) ([1]; gene EIT-4, untreated C = 2): 18
SAGE tags, E (estrogen-treated) ([1]; gene EIT-5, untreated C = 5): 27
SAGE tags, E (estrogen-treated) ([1]; gene EIT-6, untreated C = 5): 26
SAGE tags, E (estrogen-treated) ([1]; gene EIT-10 (Cathepsin D), untreated C = 112): 451
SAGE tags, E (estrogen-treated) ([1]; gene TIT-1, untreated C = 0): 4
SAGE tags, E (estrogen-treated) ([1]; gene TIT-2, untreated C = 0): 3
SAGE tags, E (estrogen-treated) ([1]; gene TIT-3, untreated C = 8): 28
SAGE tags, E (estrogen-treated) ([1]; gene TIT-4, untreated C = 7): 27
SAGE tags, E (estrogen-treated) ([1]; gene TIT-5, untreated C = 9): 19
fold induction of luciferase by estrogen ([2]; E4 construct (3 copies of the E4 ERE), HepG2, normalized to β-galactosidase): 4-5 fold
fold induction of luciferase by estrogen ([2]; VIT construct (two copies of vitellogenin consensus ERE), HepG2): 10-11 fold
estrogen responsiveness of luciferase constructs ([2]; most of the putative ERE combinations, HepG2): relatively weak
colony numbers on addition of estrogen [3]: increased colony numbers
induction of EIT-6 mRNA [4]: ~5 fold
luciferase activity (EIT-6 promoter region): modest but reproducible induction
EIT-6 mRNA levels, separate treatment [5, 7]: modestly increased
EIT-6 mRNA levels, estrogen in the presence of cycloheximide ([5]; BT-474, cycloheximide 10 μg/ml, 16 h): much stronger induction
induction of EIT-6 mRNA ([5]; BT-474 cells, Northern blot): ~10 fold
S-phase entry (ZR75-1 cells): stimulated rapid S-phase entry

C[C@@H](NC(=O)C(=O)O)C(=O)O [N-oxalyl-2R-alanine]
inhibition of prolyl hydroxylase [6]: not

C[C@H](NC(=O)C(=O)O)C(=O)O [N-oxalyl-2S-alanine]
inhibition of prolyl hydroxylase [6]: Inhibitory

O=C(O)CNC(=O)C(=O)O [N-oxalylglycine]
inhibition of prolyl hydroxylase [6]: Inhibitory

C[C@]12CC[C@@H]3c4ccc(O)cc4C[C@@H](CCCCCCCCC[S+]([O-])CCCC(F)(F)C(F)(F)F)[C@H]3[C@@H]1CC[C@@H]2O (stereo partly shown) [ICI 182,780]
abolition of estrogen induction of EIT-6 mRNA ([5]; BT-474, antagonist (ICI 1 μM or 4-hydroxy-tamoxifen 10 μM) 6 h before estrogen 10 nM for 24 h): completely

C[C@@H]1C[C@@H]([C@H](O)CC2CC(=O)NC(=O)C2)C(=O)[C@@H](C)C1 [cycloheximide]
EIT-6 mRNA levels, separate treatment [5, 7]: modestly increased
